Data from article PMC5776677 (Journal of medicinal chemistry, 2016).
Structures can show the parent of a compound that is named as a salt.

Legend:
HBV = test: Anti-HBV activity in HepG2; type: cell-based
HIV-1 [1] = test: Anti-HIV-1 activity in HIV-infected PBMCs; settings: for TI (CC50/EC50), HIV-1: HIV-1, PBMCs
Aqueous solubility = type: physicochemical
HIV-1 [2] = settings: read-out: EC50 against HIV-1; cited from earlier work
[3] = Cytotoxicity in uninfected PBMCs; type: cell-based; settings: human
[4] = type: physicochemical

| Compound | TI (CC50/EC50), HBV (HBV) | TI (CC50/EC50), HIV-1 (HIV-1 [1]) | further results |
| --- | --- | --- | --- |
| 6-(Dodecyldisulfanyl)hexyl Hydrogen ((((R)-1-(6-Amino-9H-purin-9-yl)propan-2-yl)oxy)methyl)phosphonate [5b] | >47 | >7000 |  |
| CCCCCCCCCCCCCCCCSSCCOP(=O)(O)CO[C@H](C)Cn1cnc2c(N)ncnc21 [1b, 2-(hexadecyldisulfanyl)ethyl hydrogen ((((R)-1-(6-amino-9H-purin-9-yl)propan-2-yl)oxy)methyl)phosphonate] | > 1200 |  | aqueous solubility (Aqueous solubility): poor aqueous solubility |
| CCCCCCCCCCCCCCCCSSCCCCOP(=O)(O)CO[C@H](C)Cn1cnc2c(N)ncnc21 [2b, (R)-4-(hexadecyldisulfanyl)butyl (((1-(6-amino-9H-purin-9-yl)propan-2-yl)oxy)methyl)phosphonate] | >200 | >100000 | aqueous solubility (Aqueous solubility): poor aqueous solubility |
| CCCCCCCCCCCCCCCCSSCc1ccccc1COP(=O)(O)CO[C@H](C)Cn1cnc2c(N)ncnc21 [4b, (R)-2-((hexadecyldisulfanyl)methyl)benzyl (((1-(6-amino-9H-purin-9-yl)propan-2-yl)oxy)methyl)phosphonate] |  | >31800 |  |
| CCCCCCCCCCCCCCCCOCCCOP(=O)(O)CO[C@H](C)Cn1cnc2c(N)ncnc21 [CMX-157, Hexadecyloxypropyl-9-R-[2-(Phosphonomethoxy)-Propyl]-Adenine] |  |  | EC50 (HIV-1 [2]): 0.02 µM |
| CC(C)OC(=O)OCOP(=O)(CO[C@H](C)Cn1cnc2c(N)ncnc21)OCOC(=O)OC(C)C [TDF, tenofovir disoproxil fumarate] |  |  | CC50 [3]: 44 µM |
| C[C@H](Cn1cnc2c(N)ncnc21)OCP(=O)(O)O [TFV, tenofovir, reference compound] |  | >300 |  |
| C[C@H](Cn1cnc2c(N)ncnc21)OCP(=O)(O)OCCS [compound 6, 2-mercaptoethyl hydrogen ((((R)-1-(6-amino-9H-purin-9-yl)propan-2-yl)oxy)methyl)phosphonate] | >2 | >5.38 | stability in glycine/HCl buffer ([4]; pH 2.0, 0.1 M DTT, 37.4 °C): no observed decomposition; stability in PBS ([4]; pH 7.43, TFV appears as new signal): Moderate stability; decomposition in aqueous carbonate/bicarbonate buffer ([4]; pH 9.19, 0.1 M DTT, 37.4 °C): significant decomposition; time to complete consumption of starting material ([4]; pH 10.16): ≤ 8 min; fold less active than TFV against HIV-infected PBMCs (HIV-1 [1]; relative to TFV): 58 fold |
| C[C@H](Cn1cnc2c(N)ncnc21)OCP(=O)(O)OCCCCS [compound 7, 4-mercaptobutyl hydrogen ((((R)-1-(6-amino-9H-purin-9-yl)propan-2-yl)oxy)methyl)phosphonate] | > 1 |  | stability in various aqueous buffers ([4]; all tested pH values, several hours at 37 °C): no detectable decomposition |
